Assay results published in patent publication US11358953B2, “Functionalized peptides as antiviral agents” (ENANTA PHARMACEUTICALS, INC., priority 2020, dated 2022).

The molecules below were run against SARS-CoV-2 3CL-protease (Severe acute respiratory syndrome coronavirus 2 (2019-nCoV) (SARS-CoV-2), UniProt P0DTD1) (assay: SARS-CoV-2 3C-like (3CL) protease fluorescence assay (FRET)). Details: recombinant SARS-CoV-2 3CL-protease 10 nM, 30 min preincubation at RT, substrate 40 μM, duplicate.
Assay type: biochemical

SMILES | IC50 [nM]
CC(=O)N[C@H](C(=O)N1C[C@H]2[C@@H]([C@H]1C(=O)N[C@H](C#N)C[C@@H]1CCNC1=O)C2(C)C)C(C)(C)C [Ex29, (1R,2S,5S)-3-((S)-2-acetamido-3,3-dimethylbutanoyl)-N—((S)-1-cyano-2-((S)-2-oxopyrrolidin-3-yl)ethyl)-6,6-dimethyl-3-azabicyclo[3.1.0]hexane-2-carboxamide] | < 100
CC1(C)[C@@H]2[C@@H](C(=O)N[C@H](C#N)C[C@@H]3CCNC3=O)N(C(=O)c3cc4cc(F)c(F)cc4[nH]3)C[C@@H]21 [Ex17, (1R,2S,5S)—N—((S)-1-cyano-2-((S)-2-oxopyrrolidin-3-yl)ethyl)-3-(5,6-difluoro-1H-indole-2-carbonyl)-6,6-dimethyl-3-azabicyclo[3.1.0]hexane-2-carboxamide] | 100 to 1000
O=C(NCc1ccccc1)C(=O)[C@H](C[C@@H]1CCNC1=O)NC(=O)[C@@H]1[C@H]2CCC[C@H]2CN1C(=O)c1cc2c(OC(F)F)cccc2[nH]1 [Ex15, (1S,3aR,6aS)—N—((S)-4-(benzylamino)-3,4-dioxo-1-((S)-2-oxopyrrolidin-3-yl)butan-2-yl)-2-(4-(difluoromethoxy)-1H-indole-2-carbonyl)octahydrocyclopenta[c]pyrrole-1-carboxamide] | < 100
CC1(C)[C@@H]2[C@@H](C(=O)N[C@H](C#N)C[C@@H]3CCNC3=O)N(C(=O)c3cc4c(F)ccc(F)c4[nH]3)C[C@@H]21 [Ex20, (1R,2S,5S)—N—((S)-1-cyano-2-((S)-2-oxopyrrolidin-3-yl)ethyl)-3-(4,7-difluoro-1H-indole-2-carbonyl)-6,6-dimethyl-3-azabicyclo[3.1.0]hexane-2-carboxamide] | 100 to 1000
CC1(C)[C@@H]2[C@@H](C(=O)N[C@H](C#N)C[C@@H]3CCNC3=O)N(C(=O)c3cc4cc(F)cc(F)c4[nH]3)C[C@@H]21 [Ex16, (1R,2S,5S)—N—((S)-1-cyano-2-((S)-2-oxopyrrolidin-3-yl)ethyl)-3-(5,7-difluoro-1H-indole-2-carbonyl)-6,6-dimethyl-3-azabicyclo[3.1.0]hexane-2-carboxamide] | 100 to 1000
CC(C)(C)[C@H](NC(=O)C1CCCC1)C(=O)N1C[C@H]2[C@@H]([C@H]1C(=O)N[C@H](C#N)C[C@@H]1CCNC1=O)C2(C)C [Ex23, (1R,2S,5S)—N—((S)-1-cyano-2-((S)-2-oxopyrrolidin-3-yl)ethyl)-3-((S)-2-(cyclopentanecarboxamido)-3,3-dimethylbutanoyl)-6,6-dimethyl-3-azabicyclo[3.1.0]hexane-2-carboxamide] | < 100
N#C[C@H](C[C@@H]1CCNC1=O)NC(=O)[C@@H]1CCCN1C(=O)c1cc2c(OC(F)F)cccc2[nH]1 [Ex12, (S)—N—((S)-1-cyano-2-((S)-2-oxopyrrolidin-3-yl)ethyl)-1-(4-(difluoromethoxy)-1H-indole-2-carbonyl)pyrrolidine-2-carboxamide] | > 1000
CC1(C)[C@@H]2[C@@H](C(=O)N[C@H](C#N)C[C@@H]3CCNC3=O)N(C(=O)c3cc4c(Cl)cccc4[nH]3)C[C@@H]21 [Ex21, (1R,2S,5S)-3-(4-chloro-1H-indole-2-carbonyl)-N—((S)-1-cyano-2-((S)-2-oxopyrrolidin-3-yl)ethyl)-6,6-dimethyl-3-azabicyclo[3.1.0]hexane-2-carboxamide] | 100 to 1000
COc1cccc2[nH]c(C(=O)N3C[C@@H]4CCC[C@@H]4[C@H]3C(=O)N[C@H](C#N)C[C@@H]3CCCNC3=O)cc12 [Ex7, (1S,3aR,6aS)—N—((S)-1-cyano-2-((S)-2-oxopiperidin-3-yl)ethyl)-2-(4-methoxy-1H-indole-2-carbonyl)octahydrocyclopenta[c]pyrrole-1-carboxamide] | < 100
CC1(C)C2CN(C(=O)c3cc4c(OC(F)F)cccc4[nH]3)[C@H](C(=O)N[C@H](C#N)C[C@@H]3CCNC3=O)C21 (stereo in doubt) [Ex11, (1S,2S,5R)—N—((S)-1-cyano-2-((S)-2-oxopyrrolidin-3-yl)ethyl)-3-(4-(difluoromethoxy)-1H-indole-2-carbonyl)-6,6-dimethyl-3-azabicyclo[3.1.0]hexane-2-carboxamide] | 100 to 1000
O=C[C@H](C[C@@H]1CCNC1=O)NC(=O)[C@@H]1[C@H]2CCC[C@H]2CN1C(=O)c1cc2c(OC(F)F)cccc2[nH]1 [Ex5, (1S,3aR,6aS)-2-(4-(difluoromethoxy)-1H-indole-2-carbonyl)-N—((S)-1-oxo-3-((S)-2-oxopyrrolidin-3-yl)propan-2-yl)octahydrocyclopenta[c]pyrrole-1-carboxamide] | < 100
N#C[C@H](C[C@@H]1CCNC1=O)NC(=O)[C@@H]1[C@H]2CCC[C@H]2CN1C(=O)c1cc2c(F)cc(F)cc2[nH]1 [Ex13, (1S,3aR,6aS)—N—((S)-1-cyano-2-((S)-2-oxopyrrolidin-3-yl)ethyl)-2-(4,6-difluoro-1H-indole-2-carbonyl)octahydrocyclopenta[c]pyrrole-1-carboxamide] | 100 to 1000
N#C[C@H](C[C@@H]1CCNC1=O)NC(=O)[C@@H]1[C@H]2CCC[C@H]2CN1C(=O)c1cc2c(OC(F)F)cccc2[nH]1 [Ex3, (1S,3aR,6aS)—N—((S)-1-cyano-2-((S)-2-oxopyrrolidin-3-yl)ethyl)-2-(4-(difluoromethoxy)-1H-indole-2-carbonyl)octahydrocyclopenta[c]pyrrole-1-carboxamide] | 100 to 1000
CCC(=O)N[C@H](C(=O)N1C[C@H]2[C@@H]([C@H]1C(=O)N[C@H](C#N)C[C@@H]1CCNC1=O)C2(C)C)C(C)(C)C [Ex26, (1R,2S,5S)—N—((S)-1-cyano-2-((S)-2-oxopyrrolidin-3-yl)ethyl)-3-((S)-3,3-dimethyl-2-propionamidobutanoyl)-6,6-dimethyl-3-azabicyclo[3.1.0]hexane-2-carboxamide] | < 100
COc1cccc2[nH]c(C(=O)N3C[C@@H]4CCC[C@@H]4[C@H]3C(=O)N[C@@H](C[C@@H]3CCNC3=O)C(=O)COC(=O)c3c(Cl)cccc3Cl)cc12 [Ex2, (S)-3-((1S,3aR,6aS)-2-(4-methoxy-1H-indole-2-carbonyl)octahydrocyclopenta[c]pyrrole-1-carboxamido)-2-oxo-4-((S)-2-oxopyrrolidin-3-yl)butyl 2,6-dichlorobenzoate] | < 100
N#C[C@H](C[C@@H]1CCNC1=O)NC(=O)[C@@H]1[C@H]2CCC[C@H]2CN1C(=O)c1cc2c(Cl)cccc2[nH]1 [Ex14, (1S,3aR,6aS)-2-(4-chloro-1H-indole-2-carbonyl)-N—((S)-1-cyano-2-((S)-2-oxopyrrolidin-3-yl)ethyl)octahydrocyclopenta[c]pyrrole-1-carboxamide] | 100 to 1000
CC(C)(C)[C@H](NC(=O)C1CCCCC1)C(=O)N1C[C@H]2[C@@H]([C@H]1C(=O)N[C@H](C#N)C[C@@H]1CCNC1=O)C2(C)C [Ex25, (1R,2S,5S)—N—((S)-1-cyano-2-((S)-2-oxopyrrolidin-3-yl)ethyl)-3-((S)-2-(cyclohexanecarboxamido)-3,3-dimethylbutanoyl)-6,6-dimethyl-3-azabicyclo[3.1.0]hexane-2-carboxamide] | < 100
O=C(NC1CCCCC1)C(=O)[C@H](C[C@@H]1CCNC1=O)NC(=O)[C@@H]1[C@H]2CCC[C@H]2CN1C(=O)c1cc2c(OC(F)F)cccc2[nH]1 [Ex8, (1S,3aR,6aS)—N—((S)-4-(cyclohexylamino)-3,4-dioxo-1-((S)-2-oxopyrrolidin-3-yl)butan-2-yl)-2-(4-(difluoromethoxy)-1H-indole-2-carbonyl)octahydrocyclopenta[c]pyrrole-1-carboxamide] | < 100
CC(C)(C)C(=O)N[C@H](C(=O)N1C[C@H]2[C@@H]([C@H]1C(=O)N[C@H](C#N)C[C@@H]1CCNC1=O)C2(C)C)C(C)(C)C [Ex28, (1R,2S,5S)—N—((S)-1-cyano-2-((S)-2-oxopyrrolidin-3-yl)ethyl)-3-((S)-3,3-dimethyl-2-pivalamidobutanoyl)-6,6-dimethyl-3-azabicyclo[3.1.0]hexane-2-carboxamide] | < 100
COc1cccc2[nH]c(C(=O)N3C[C@@H]4CCC[C@@H]4[C@H]3C(=O)N[C@H](C=O)C[C@@H]3CCNC3=O)cc12 [Ex6, (1S,3aR,6aS)-2-(4-methoxy-1H-indole-2-carbonyl)-N—((S)-1-oxo-3-((S)-2-oxopyrrolidin-3-yl)propan-2-yl)octahydrocyclopenta[c]pyrrole-1-carboxamide] | < 100
CC(C)C(=O)N[C@H](C(=O)N1C[C@H]2[C@@H]([C@H]1C(=O)N[C@H](C#N)C[C@@H]1CCNC1=O)C2(C)C)C(C)(C)C [Ex27, (1R,2S,5S)—N—((S)-1-cyano-2-((S)-2-oxopyrrolidin-3-yl)ethyl)-3-((S)-2-isobutyramido-3,3-dimethylbutanoyl)-6,6-dimethyl-3-azabicyclo[3.1.0]hexane-2-carboxamide] | < 100
N#C[C@H](C[C@@H]1CCNC1=O)NC(=O)[C@@H]1C[C@H](Oc2ccccc2)CN1C(=O)c1cc2c(OC(F)F)cccc2[nH]1 [Ex19, (2S,4S)—N—((S)-1-cyano-2-((S)-2-oxopyrrolidin-3-yl)ethyl)-1-(4-(difluoromethoxy)-1H-indole-2-carbonyl)-4-phenoxypyrrolidine-2-carboxamide] | > 1000
COc1cccc2[nH]c(C(=O)N3C[C@@H]4CCC[C@@H]4[C@H]3C(=O)N[C@@H](C[C@@H]3CCNC3=O)C(=O)CO)cc12 [Ex10, (1S,3aR,6aS)—N—((S)-4-hydroxy-3-oxo-1-((S)-2-oxopyrrolidin-3-yl)butan-2-yl)-2-(4-methoxy-1H-indole-2-carbonyl)octahydrocyclopenta[c]pyrrole-1-carboxamide] | 100 to 1000
CC1(C)[C@@H]2[C@@H](C(=O)N[C@H](C#N)C[C@@H]3CCNC3=O)N(C(=O)c3cc4c(Cl)cccc4o3)C[C@@H]21 [Ex22, (1R,2S,5S)-3-(4-chlorobenzofuran-2-carbonyl)-N—((S)-1-cyano-2-((S)-2-oxopyrrolidin-3-yl)ethyl)-6,6-dimethyl-3-azabicyclo[3.1.0]hexane-2-carboxamide] | > 1000
CC1(C)[C@@H]2[C@@H](C(=O)N[C@H](C#N)C[C@@H]3CCNC3=O)N(C(=O)c3cc4c(F)cc(F)cc4[nH]3)C[C@@H]21 [Ex18, (1R,2S,5S)—N—((S)-1-cyano-2-((S)-2-oxopyrrolidin-3-yl)ethyl)-3-(4,6-difluoro-1H-indole-2-carbonyl)-6,6-dimethyl-3-azabicyclo[3.1.0]hexane-2-carboxamide] | 100 to 1000
